Source: patent US20130230511A1, “BIOMARKERS FOR RESPONSE TO TYROSINE KINASE PATHWAY INHIBITORS IN CANCER” (BOARD OF REGENTS, THE UNIVERSITY OF TEXAS SYSTEM, priority 2012, published 2013)

How the values were obtained:
NSCLC cell line H23 = assay: MTS assay of in vitro resistance to cisplatin and carboplatin, with KDR siRNA knockdown; assay type: cell-based; conditions: for decrease in IC50 caused by knockdown of KDR: H23 cells, siKDR knockdown versus untransfected, P<0.05; for IC50: MTS assay, 72 h drug exposure
Experimental: Cisplatin and carboplatin sensitivity was determined by MTS (3-(4,5-dimethylthiazol-2-yl)-5-(3-carboxymethoxyphenyl)-2-(4-sulfophenyl)-2H-tetrazolium, inner salt) assay for each cell line and the concentration required for 50% growth inhibition (IC50) was determined.
NSCLC cells were transfected with siRNA targeting KDR and control siRNA (OriGene Technology, Md., USA) at a final concentration of 10 nM using Lipofectamine RNAiMAX (Invitrogen, CA, USA) according to the manufacturer's instructions. Medium was replaced after 24 h. To verify the knockdown efficiency, mRNA and protein of transfected cells were collected for real-time RT-PCR and Western blot analyses.
The assessment of in vitro resistance to cisplatin and carboplatin was determined by the MTS assay. NSCLC cell lines were seeded in octuplicate at a density of 2,000 per well in 96-well plates. The following day, cells were treated with cisplatin and carboplatin at various concentrations ranging from 0 to 120 μmol/L for cisplatin and 0 to 200 μmol/L for carboplatin. After 72 h of drug exposure, 20 μL of MTS solution was added per well. Cells were incubated for 1-4 hours at 37° C. and read at a wavelength of 490 nm.
To investigate the role of KDR CNG and VEGFR-2 overexpression in resistance to both cisplatin and carboplatin, siRNA was utilized to knockdown KDR expression in H23 and H461 NSCLC cell lines, which contain 6-9 KDR gene copies. […] To evaluate the effect of KDR overexpression on sensitivity to cisplatin and carboplatin, the expression of KDR was inhibited by transfecting H23 and H461 cells with control siRNA or siRNA targeting KDR and then treating the cells with increasing concentrations of the chemotherapy drugs. Cell viability was evaluated by MTS assay.

H23 cells = conditions: which harbor VEGFR (KDR) CNGs
HIF-1α = conditions: H23 cells (KDR CNG+), ELISA
Experimental: For HIF-1 expression analysis, the cells were serum-starved for 24 h and stimulated with 50 ng/mL VEGF-A (R&D Systems, MN, USA). Cells were incubated in normoxia and protein lysates were collected after 8 h. HIF-1α ELISA (R&D Systems, MN, USA) was performed according to the manufacturer's instructions.

[1] = test system: HIF-1α-regulated proteins (EZH2, Met, phosphorylated Met); assay: Changes in HIF-1α-regulated proteins in VEGFR amplified cell lines; assay type: cell-based; conditions: H23 and Calu1 cells (VEGFR CNGs)
Experimental: Two VEGFR amplified cell lines, H23 and Calu1, were treated with the VEGFR pathway inhibitor bevacizumab and evaluated for changes in proteins regulated by HIF-1α.
In addition, two VEGFR amplified cell lines, H23 and Calu1, were treated with the VEGFR pathway inhibitor bevacizumab and changes in proteins regulated by HIF-1α were evaluated.

[2] = untransfected (non-transfected) H23 cells

| Molecule | decrease in IC50 caused by knockdown of KDR (NSCLC cell line H23) [fold] | IC50 (NSCLC cell line H23; siKDR knockdown H23 cells) [µM] | IC50 (NSCLC cell line H23; [2]) [µM] | other results |
| --- | --- | --- | --- | --- |
| N.N.O=C([O-])C1(C(=O)[O-])CCC1.[Pt+2] [carboplatin] | 3.5 | 27.9 | 97 |  |
| N.N.[Cl][Pt][Cl] [cisplatin] | 1.9 | 53 | 97.9 |  |
| Cc1ccc(NC(=O)c2ccc(CN3CCN(C)CC3)cc2)cc1Nc1nccc(-c2cccnc2)n1 [imatinib] |  |  |  | cell migration (H23 cells): does not inhibit cellular migration; HIF-1α levels (HIF-1α): did not affect |
| bevacizumab |  |  |  | EZH2 protein [1]: decreased; Met protein [1]: decreased; phosphorylated Met [1]: decreased |
